According to ChEMBL document CHEMBL2029339, “Acylthiourea, acylurea, and acylguanidine derivatives with potent hedgehog inhibiting activity” (J Med Chem, 2012):
Activity calls are given as the source filed them. The calls are words filed in the database; no cut-off is given here.

How the values were obtained:
[1] = biological target: Smoothened (Mus musculus) (UniProt P56726); test: Inhibition of Smo-mediated Hh signaling in mouse Shh-light2 cells at 3 uM by luciferase reporter gene assay; details: Shh Light II
[2] = test system: C3H 10T1/2; test: Inhibition of SAG-induced differentiation of mouse mesenchymal pluripotent C3H10T1/2 cells to alkaline phosphatase positive oeseoblasts at 10 uM after 6 days; details: C3H 10T1/2, 6 days
[3] = biological target: Smoothened (Mus musculus) (UniProt P56726); test: Inhibition of Smo-mediated Hh signaling in mouse Shh-light2 cells at 0.3 uM by luciferase reporter gene assay; details: Shh Light II
[4] = test system: C3H 10T1/2; test: Inhibition of SAG-induced differentiation of mouse mesenchymal pluripotent C3H10T1/2 cells to alkaline phosphatase positive oeseoblasts after 6 days; details: C3H 10T1/2, 6 days

Chain of Smoothened (Mus musculus) (P56726 whole entry, looked up): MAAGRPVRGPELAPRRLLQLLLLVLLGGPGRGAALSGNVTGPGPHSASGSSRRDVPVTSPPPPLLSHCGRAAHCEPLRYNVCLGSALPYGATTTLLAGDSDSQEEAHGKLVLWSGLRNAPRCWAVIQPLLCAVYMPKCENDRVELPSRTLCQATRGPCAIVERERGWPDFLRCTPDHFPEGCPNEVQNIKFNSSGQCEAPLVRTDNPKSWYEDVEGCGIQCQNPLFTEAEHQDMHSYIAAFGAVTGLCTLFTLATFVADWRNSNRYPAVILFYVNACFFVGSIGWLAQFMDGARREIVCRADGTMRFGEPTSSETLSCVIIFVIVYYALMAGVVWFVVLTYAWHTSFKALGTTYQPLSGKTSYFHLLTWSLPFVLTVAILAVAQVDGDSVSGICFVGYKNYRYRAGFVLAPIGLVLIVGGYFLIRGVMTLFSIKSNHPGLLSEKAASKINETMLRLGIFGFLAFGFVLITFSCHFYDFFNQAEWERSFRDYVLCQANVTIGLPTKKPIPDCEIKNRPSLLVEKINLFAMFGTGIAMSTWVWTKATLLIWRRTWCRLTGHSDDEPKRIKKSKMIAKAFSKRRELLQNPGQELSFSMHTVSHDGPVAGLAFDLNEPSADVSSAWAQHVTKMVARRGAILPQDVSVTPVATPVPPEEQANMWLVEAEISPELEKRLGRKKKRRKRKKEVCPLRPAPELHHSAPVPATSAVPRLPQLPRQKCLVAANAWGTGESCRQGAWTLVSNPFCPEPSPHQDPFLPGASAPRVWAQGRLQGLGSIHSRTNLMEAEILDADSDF

Row | SMILES | inhibition [1] | inhibition [3] [%] | IC50 [4] [nM] | inhibition at 10 µM [2] [%]
1 | COc1cc(C(=O)NC(=S)Nc2cccc(NC(=O)c3cc(OC)c(OC)c(OC)c3)c2)cc(OC)c1OC | 37% |  |  | 74
2 | COc1ccc(NC(=O)c2cc(NC(=S)NC(=O)c3cc(OC)c(OC)c(OC)c3)ccc2Cl)cc1 | 100% | 10 |  | 88
3 | COc1cc(C(=O)NC(=S)Nc2cccc(NC(=O)Nc3ccc(-c4ccccc4)cc3)c2)cc(OC)c1OC | 71% |  |  | 91
4 | O=C(NC(=S)Nc1cccc(NC(=O)c2ccccc2)c1)c1ccc2c(c1)OCCO2 | inactive |  |  | 
5 | COc1cc(C(=O)NC(=S)Nc2cccc(NC(=O)c3ccc(N4CCOCC4)cc3)c2)cc(OC)c1OC | 90% |  |  | 55
6 | COc1cc(C(=O)NC(=S)Nc2cccc(NC(=O)C(C)C)c2)cc(OC)c1OC | 6% |  |  | 6
7 | COc1cc(C(=O)NC(=S)Nc2cccc(NC(=O)c3ccccc3)c2)cc2c1OCO2 | 92% |  | 1100 | 
8 | COc1ccc(C(=O)NC(=S)Nc2cccc(NC(=O)c3ccccc3)c2)c(OC)c1 | 34% |  | 4100 | 
9 | CCOc1c(OC)cc(C(=O)NC(=S)Nc2cccc(NC(=O)c3ccccc3)c2)cc1OC | 99% |  | 600 | 
10 | COc1cc(C(=O)NC(=S)Nc2cccc(-n3ccc4ccccc43)c2)cc(OC)c1OC | 69% |  |  | 92
11 | COc1cc(C(=O)NC(=S)Nc2cccc(-n3cnc4ccccc43)c2)cc(OC)c1OC | 84% |  |  | 60
12 | COc1cc(C(=O)NC(=S)Nc2cccc(NC(=O)C3CCCCC3)c2)cc(OC)c1OC | 14% |  |  | 26
13 | COc1cc(OC)cc(C(=O)NC(=S)Nc2cccc(NC(=O)c3ccccc3)c2)c1 | 84% |  | 1900 | 
14 | COc1ccc(C(=O)NC(=S)Nc2cccc(NC(=O)c3ccccc3)c2)cc1OC | 71% |  |  | 45
15 | CCOc1cc(C(=O)NC(=S)Nc2cccc(NC(=O)c3ccccc3)c2)cc(OCC)c1OCC | 100% |  | 800 | 
16 | CCOc1cc(C(=O)NC(=S)Nc2cccc(NC(=O)c3ccccc3)c2)cc(OC)c1OCC | 100% |  | 800 | 
17 | COc1ccc(C(=O)Nc2cccc(NC(=S)NC(=O)c3cc(OC)c(OC)c(OC)c3)c2)cc1 | 93% |  | 1600 | 85

More lines, main results first:

Row | inhibition [1] | inhibition [3] [%] | IC50 [4] [nM] | SMILES | inhibition at 10 µM [2] [%]
18 | 13% |  |  | COc1cc(C(=O)NC(=S)Nc2cccc(NC(=O)c3cccs3)c2)cc(OC)c1OC | 60
19 | 99% |  | 800 | COc1cc(C(=O)NC(=S)Nc2cccc(NC(=O)c3ccc(Cl)cc3)c2)cc(OC)c1OC | 96
20 | 66% |  | 2500 | COc1cc(C(=O)NC(=S)Nc2cccc(NC(=O)c3ccccc3Cl)c2)cc(OC)c1OC | 80
21 | 99% |  | 2000 | COc1cccc(C(=O)Nc2cccc(NC(=S)NC(=O)c3cc(OC)c(OC)c(OC)c3)c2)c1 | 89
22 | 53% |  |  | COc1cc(C(=O)NC(=S)Nc2cccc(NC(=O)c3ccco3)c2)cc(OC)c1OC | 67
23 | 78% |  |  | COc1cc(C(=O)NC(=S)Nc2cccc(NC(=O)Nc3ccccc3)c2)cc(OC)c1OC | 104
24 | 64% |  |  | COc1cc(C(=O)NC(=S)Nc2cccc(NC(=O)c3cccc4ccccc34)c2)cc(OC)c1OC | 63
25 | 24% |  |  | COc1cc(C(=O)NC(=S)Nc2cccc(NC(=O)c3ccc4ccccc4c3)c2)cc(OC)c1OC | 59
26 | 67% |  |  | COc1cc(C(=O)NC(=S)Nc2cccc(NC(=O)c3ccncc3)c2)cc(OC)c1OC | 82
27 | 49% |  | 2000 | COc1ccccc1C(=O)Nc1cccc(NC(=S)NC(=O)c2cc(OC)c(OC)c(OC)c2)c1 | 99
